Entries after “also recorded” stand apart in the source; their conditions may differ.
Assays:
[1] = system: HaCaT normal immortal keratonocytes; assay: XTT cell viability assay, HaCaT; type: cell-based, human; settings: Cell line/XTT, 72 hr
Method: (§1) A431 (human skin SCC), HT-297.T (human AK), and HaCaT transformed normal keratinocyte cell lines were from ATCC (Manassas, VA) and were maintained in DMEM supplemented with 10% FCS, 4 mM L-Gln, 1 mM sodium pyruvate, 100 U/mL penicillin, 1 μg/mL streptomycin. Human HK1 and HK2 plasmids were purchased from Addgene (Cambridge, MA) and were purified from E. Coli. VDAC1 was purified from sheep liver mitochondria as described (Arbel et al. 2012, incorporated herein by reference). Human skin tissue microarray (SK208 and SK 805) were purchased from US Biomax Inc. (Rockville, MD).
(§2) For XTT assays, cells were plated in 96-well plates (5,000 cells per well) for 24 hours. Cells were then incubated with different concentrations of Formula C in triplicates for 72 hr in DMEM supplemented with 0.5% FCS and 5 mM Glucose. Cell viability was evaluated using 2,3-bis-(2-methoxy-4-nitro-5-sulfophenyl)-2H-tetrazolium-5-carboxanilide (XTT)-based colorimetric assay kit (Biological Industries Ltd., Kibbutz Beit-Haemek, Israel). The optical density was measured by an Infinite 200 ELISA reader at 450 nm and reference was measured at 630 nm (Tecan, Männedorf, Switzerland).

Colon CXF 243 = assay: Colony forming assay (CFA), CXF 243; type: cell-based, human; settings: PDX/CFA
Method: (§3) CFA was performed by Charles River Laboratories (Freiburg, Germany) in 96-well plate format according to a modified two-layer soft agar assay. The origin of the tumor xenografts has been described (Fiebig et al. 1989, incorporated herein by reference). The list of tumors used in this study is detailed in Table 1.

Head & Neck HNXF 536 = assay: CFA, HNXF 536; type: cell-based, human; settings: PDX/CFA
Method: as §3

[2] = system: Leukemia (ALL) LEXFAL MOLT-4; assay: CFA, LEXFAL MOLT-4; type: cell-based, human; settings: Cell line/CFA
Method: as §3

Liver (HCC) LIXFH Hep G2 = assay: CFA, LIXFH Hep G2; type: cell-based, human; settings: Cell line/CFA
Method: as §3

[3] = system: Lung (NSCLC, adeno) LXFA 749; assay: CFA, LXFA 749; type: cell-based, human; settings: PDX/CFA
Method: as §3

Lung (SCLC) LXFS 573 = assay: CFA, LXFS 573; type: cell-based, human; settings: PDX/CFA
Method: as §3

[4] = system: Lymphoma (Non-Hodgkin) LYXFNH RAJI; assay: CFA, LYXFNH RAJI; type: cell-based, human; settings: Cell line/CFA
Method: as §3

Breast MAXF 574 = assay: CFA, MAXF 574; type: cell-based, human; settings: PDX/CFA
Method: as §3

Kidney RXF 423 = assay: CFA, RXF 423; type: cell-based, human; settings: PDX/CFA
Method: as §3

[5] = system: Pancreas PAXF Mia-Pa-Ca-2; assay: CFA, PAXF Mia-Pa-Ca-2; type: cell-based, human; settings: Cell line/CFA
Method: as §3

[6] = system: Cutanous T cell lymphoma MJ; assay: XTT cell viability assay, MJ; type: cell-based, human; settings: Cell line/XTT
Method: as §2

VDAC1/HK1 complex = target: T1, VDAC1/HK1 complex (Homo sapiens, UniProt P19367); assay: Microscale Thermophoresis (MST) dissociation of VDAC1/HK1 complex; type: binding; settings: cell-free MST
T1 construct: host or cells: E. coli (HK1); sheep liver mitochondria (VDAC1)
T1 sequence (P19367 whole entry, one chain of several): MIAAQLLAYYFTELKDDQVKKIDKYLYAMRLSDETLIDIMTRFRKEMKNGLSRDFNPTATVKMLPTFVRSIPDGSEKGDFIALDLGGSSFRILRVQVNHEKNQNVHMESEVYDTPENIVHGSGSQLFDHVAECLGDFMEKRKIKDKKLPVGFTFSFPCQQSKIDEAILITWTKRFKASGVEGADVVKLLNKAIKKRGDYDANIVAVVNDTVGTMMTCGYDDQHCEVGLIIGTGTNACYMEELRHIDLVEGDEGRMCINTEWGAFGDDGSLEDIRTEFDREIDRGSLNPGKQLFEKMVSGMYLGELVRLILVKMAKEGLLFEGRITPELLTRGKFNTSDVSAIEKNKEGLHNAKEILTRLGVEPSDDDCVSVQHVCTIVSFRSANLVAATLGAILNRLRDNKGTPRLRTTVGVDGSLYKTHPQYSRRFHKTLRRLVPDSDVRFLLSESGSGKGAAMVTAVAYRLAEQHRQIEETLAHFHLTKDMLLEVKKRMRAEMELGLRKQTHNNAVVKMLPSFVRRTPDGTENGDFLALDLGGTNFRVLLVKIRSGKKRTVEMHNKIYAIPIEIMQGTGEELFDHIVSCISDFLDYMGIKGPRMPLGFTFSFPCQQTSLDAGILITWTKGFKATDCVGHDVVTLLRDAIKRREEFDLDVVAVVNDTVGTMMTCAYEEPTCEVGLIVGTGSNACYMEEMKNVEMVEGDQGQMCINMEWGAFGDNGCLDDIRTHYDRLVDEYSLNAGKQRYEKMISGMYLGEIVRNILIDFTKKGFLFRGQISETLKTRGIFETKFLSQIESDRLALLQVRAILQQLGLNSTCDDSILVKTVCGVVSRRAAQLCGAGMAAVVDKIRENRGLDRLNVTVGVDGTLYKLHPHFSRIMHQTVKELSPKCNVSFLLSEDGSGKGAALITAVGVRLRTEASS
Method: as §1
Studies were conducted on Nanotemper Monolith NT.115 (Munich, Germany). HK1 and HK2 were labeled using Monolith™ NT.115 Protein Labeling Kit BLUE-NHS. As a preliminary study to form the VDAC1-HK complexes, various concentrations of VDAC1 were added to 67 nM HK1 or 71 nM HK2. The preferred VDAC1 concentration was determined to be 1.5 μM. For dissociation studies, HKs were pre-incubated with VDAC1 for 10 minutes and various concentrations of Formula C were added for an additional 10 minutes. MST default parameters were used and analysis was with Nanotemper analysis software. […]
The activity of Formula C in a cell-free assay was evaluated using Microscale Thermophoresis (MST) analysis, which is based on altered movement of a protein in a temperature gradient when bound to other molecules. […]

A431 cells [7] = assay: Cellular ATP determination (CellTiter-Glo) in A431 cells; type: cell-based, human; settings: 2-hour incubation
Method: Cellular ATP levels were determined using CellTiter-Glo® Luminescent Cell Viability Assay kit (Promega, Madison, WI) following 2 hours of treatment at 37° C.

A431 cells [8] = assay: Apoptosis: cytochrome C in mitochondrial fraction (WB), A431 cells; type: cell-based, human; settings: within 2 hours of treatment, WB semi-quantification
Method: Antibodies used: anti-rabbit HK1 (C-20245) and HK2 (C-28765) from CST (Danvers, MA), anti-rabbit PPIA (ab41684, Abcam), anti-rabbit TIM22 (14927-1-AP, Proteintech Group Inc., Rosemont, IL), anti-rabbit Cytochrome C (PA1118, Boster Biological Technology, Pleasanton, CA). Detection was performed using secondary antibodies: peroxidase-conjugated Affinipure goat anti-rabbit IgG (H+L) or goat anti-mouse IgG (H+L) (111-035-003 and 115-035-003, Jackson ImmunoResearch, West Grove, PA), and development was using the ECL kit WesternBright™ ECL (K-12045-D10, Advansta, Menlo Park, California, USA).
Apoptosis induction was determined by semi-quantification of cytochrome C levels in the mitochondrial fraction analyzed by WB, following 2 hours of treatment with Formula C in A431 cells. Cleaved caspase-3 levels were analyzed following 6 hours of Formula C treatment in A431 cells, using PathScan® Cleaved Caspase-3 Sandwich ELISA kit (CST, Danvers, MA).

[9] = system: panel of 57 patient-derived tumors and cancer cell lines; assay: CFA panel of 57 patient-derived tumors and cancer cell lines; type: cell-based, human
Method: as §3

HK2 = target: T2, HK2 (Homo sapiens, UniProt P52789); assay: HK catalytic activity coupled enzymatic assay, HK2; type: biochemical; settings: as a function of ATP or glucose; absence or presence of 10 M Formula C
T2 construct: host or cells: E. coli
T2 sequence (P52789 whole entry): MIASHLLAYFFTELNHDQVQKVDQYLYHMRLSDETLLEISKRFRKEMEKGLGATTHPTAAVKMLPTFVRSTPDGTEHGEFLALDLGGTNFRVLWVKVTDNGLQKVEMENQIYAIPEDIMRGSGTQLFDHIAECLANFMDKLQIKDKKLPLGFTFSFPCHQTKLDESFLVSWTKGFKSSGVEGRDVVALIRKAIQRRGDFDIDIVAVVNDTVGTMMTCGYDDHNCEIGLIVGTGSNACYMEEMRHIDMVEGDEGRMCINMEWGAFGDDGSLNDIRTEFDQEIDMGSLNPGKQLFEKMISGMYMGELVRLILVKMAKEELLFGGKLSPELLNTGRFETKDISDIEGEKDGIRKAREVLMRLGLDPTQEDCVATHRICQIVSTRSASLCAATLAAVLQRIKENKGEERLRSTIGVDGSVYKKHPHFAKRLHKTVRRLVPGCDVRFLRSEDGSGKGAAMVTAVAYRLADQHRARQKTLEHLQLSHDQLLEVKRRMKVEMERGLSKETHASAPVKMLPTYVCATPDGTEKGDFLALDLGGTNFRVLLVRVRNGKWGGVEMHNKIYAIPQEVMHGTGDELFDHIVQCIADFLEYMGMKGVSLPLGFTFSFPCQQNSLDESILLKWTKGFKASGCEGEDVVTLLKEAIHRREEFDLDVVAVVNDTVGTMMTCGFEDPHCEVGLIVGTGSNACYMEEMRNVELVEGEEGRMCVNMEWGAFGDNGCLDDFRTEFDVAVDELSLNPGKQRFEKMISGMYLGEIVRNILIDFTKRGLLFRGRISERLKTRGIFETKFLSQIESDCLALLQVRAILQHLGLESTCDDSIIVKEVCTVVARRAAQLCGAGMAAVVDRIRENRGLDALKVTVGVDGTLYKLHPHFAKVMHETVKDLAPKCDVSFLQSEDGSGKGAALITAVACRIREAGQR
Method: as §1
Hexokinase catalytic activity was determined by the coupled enzymatic assay in which hexokinase catalyzes the conversion of glucose to G6P, which is then oxidized by glucose-6-phosphate dehydrogenase (G6PDH) in the presence of NADP to form 6-Phospho-D-Gluconate and NADPH. NADPH production results in a colorimetric signal at 340 nm, which is proportional to the hexokinase catalytic activity. The readings were recorded in an ELISA plate reader Infinite 200 ELISA reader (Tecan, Männedorf, Switzerland).

Work on `CC/C=C\CC1C(=O)CCC1CC(=O)Oc1cccc2cccnc12` (centres unmarked) [Formula C] yielded an IC50 [1] of 3370 nM, an IC50 (Colon CXF 243) of 1760 nM and an IC50 (Head & Neck HNXF 536) of 1440 nM. The IC50 [2] was 2280 nM, the IC50 (Liver (HCC) LIXFH Hep G2) was 5200 nM and the IC50 [3] was 1700 nM. The IC50 (Lung (SCLC) LXFS 573) was 1940 nM, the IC50 [4] was 1380 nM and the IC50 (Breast MAXF 574) was 5410 nM. For the same compound, the IC50 (Kidney RXF 423) was 1700 nM, the IC50 [5] was 1970 nM and the IC50 [6] was 1470 nM. The “effect on the VDAC1/HK1 complex” value (VDAC1/HK1 complex) was “no effect”, the “reduction of cellular ATP levels” value (A431 cells [7]) was no more than 50% and the “cytochrome C levels in the mitochondrial fraction” value (A431 cells [8]) was “reduction of cytochrome C levels”. The “share of tested cancer types with strong anti-proliferation effect (IC50<2 uM)” value [9] was 70% and the HK2 catalytic activity (HK2) was “does not affect; also recorded: did not affect the catalytic activity”.
